Measurements: patent US20130252813A1, “Herbicidal Compositions for Tolerant or Resistant Sugar Beet Crops” (Bayer CropScience AG, priority 1998, published 2013)

Legend:
Type in all cases: in vivo
Echinochloa crus-galli = test: Herbicidal action and selectivity in sugar beet crop (field trial, Table 4); settings: application in 3-leaf stage, scoring 4 weeks after application
Method: (§1) Transgenic sugar beet plants with resistance to one or more herbicides (A) were grown together with typical weed plants in the open in 2×5 m plots under natural field conditions; alternatively, the weed population established naturally while the sugar beet plants grew. Treatment with the compositions according to the invention and, for control purposes, with separate application of the active ingredients of the components alone, was carried out under standard conditions with a plot sprayer at an application rate of 200-300 liters of water per hectare in parallel trials in accordance with the scheme of Table 1, i.e. pre-sowing/pre-emergence, […] or post-emergence at the early, medium or late stage.
(§2) At 2, 4, 6 and 8 week intervals after application, the herbicidal activity of the active ingredients or active ingredient mixtures were scored visually by comparing the treated plots with untreated control plots. Damage and development of all aerial plant organs was recorded. The scoring was done using a percentage scale (100% activity=all plants dead; 50% activity=50% of the plants and green plant organs dead; 0% activity=no discernible effect=like control plot). The score values of in each case 4 plots were averaged.

transgenic sugar beet [1] = test: Damage to transgenic sugar beet (field trial, Table 4); settings: application in 3-leaf stage
Method: as §1, §2

transgenic sugar beet [2] = test: Damage to transgenic sugar beet (greenhouse experiment, Table 3); set-up: scale not given here; settings: greenhouse Table 3, application in the 4-5-leaf stage
Setaria viridis [3] = test: Herbicidal action (field trial, sequential treatment, Table 8); settings: dose 3500 g A.S./ha pre-emergence; scorings 22 days after application
Method: as §1
(§3) […] Damage and development of all aerial plant organs was recorded. The scoring was done using a percentage scale (100% activity=all plants dead; 50% activity=50% of the plants and green plant organs dead; 0% activity=no discernible effect=like control plot). The score values of in each case 4 plots were averaged.

Amaranthus retroflexus = test: as above; settings: dose 3500 g A.S./ha pre-emergence; scorings 22 days after application
Method: as §1, §3

Galium aparine [4] = test: Herbicidal action in sugar beet crop (greenhouse experiment, Table 3); settings: application in the 4-5-leaf stage, scoring 3 weeks after application
Excerpt: Seeds or rhizomes of monocotyledonous and dicotyledonous weeds are placed in sandy loam soil in cardboard pots, covered with soil and grown in the greenhouse under good growth conditions. […] The compositions according to the
Invention, which are formulated as wettable powders or as emulsion concentrates, are sprayed at various dosages onto the green plant organs at an application rate of 600 to 800 l of water per ha (converted). After the experimental plants have remained in the greenhouse for approx. 3 to 4 weeks under optimal growth conditions, the effect of the preparations is scored visually in comparison with untreated controls. The compositions according to the invention also have a good herbicidal activity against a broad spectrum of economically Important grass weeds and broad-leaved weeds when applied post-emergence.

transgenic sugar beet [5] = test: Damage to transgenic sugar beet - field trial (Table 2); settings: application in 2-4-leaf stage
Method: as §1, §2

Setaria viridis [6] = test: Herbicidal action in sugar beet - field trial (Table 2); settings: application in 2-4-leaf stage, scoring 3 weeks after application
Method: as §1, §3

Galium aparine [7] = test: Herbicidal action (field trial, Table 7); settings: application in the 4-5-leaf stage, scoring 26 days after application
Method: as §1, §2

Avena fatua = test: Herbicidal action and selectivity in sugar beet crop (field trial, Table 5); settings: application in the 3-5-leaf stage, scoring 4 weeks after application
Method: as §1, §2

transgenic sugar beet [8] = test: Damage to transgenic sugar beet (field trial, Table 5); settings: application in the 3-5-leaf stage
Method: as §1, §2

Structure (SMILES): CCC/C(=N\OCC)C1=C(O)CC(CC(C)SCC)CC1=O (stereo not shown) [(B4.1), (E,Z)-2-(1-ethoxyimino-butyl)-5-[2-(ethylthio)propyl]-3-hydroxycyclohex-2-enone]
- Herbicidal action in % against Echinochloa crus-galli (Echinochloa crus-galli; dose 105 g A.S./ha): 35%
- Herbicidal action in % against Echinochloa crus-galli (Echinochloa crus-galli; dose 210 g A.S./ha): 73%
- Herbicidal action in % against Echinochloa crus-galli (Echinochloa crus-galli; dose 315 g A.S./ha): 85%
- Damage to transgenic sugar beet (transgenic sugar beet [1]; dose 105 g A.S./ha): 0
- Damage to transgenic sugar beet (transgenic sugar beet [1]; dose 210 g A.S./ha): 0
- Damage to transgenic sugar beet (transgenic sugar beet [1]; dose 315 g A.S./ha): 0

Structure (SMILES): Cc1nnc(-c2ccccc2)c(=O)n1N [(B1.4), 4-amino-4,5-dihydro-3-methyl-6-phenyl-1,2,4-triazin-5-one]
- Damage to transgenic sugar beet (transgenic sugar beet [2]; dose 750 g A.S./ha): 0
- Damage to transgenic sugar beet (transgenic sugar beet [2]; dose 1500 g A.S./ha): 0
- Damage to transgenic sugar beet (transgenic sugar beet [2]; dose 3000 g A.S./ha): 0
- Herbicidal action in % against Setaria viridis (Setaria viridis [3]): 20%
- Herbicidal action in % against Amaranthus retroflexus (Amaranthus retroflexus): 73%
- Herbicidal action in % against Galium aparine (Galium aparine [4]; dose 750 g A.S./ha): 5%
- Herbicidal action in % against Galium aparine (Galium aparine [4]; dose 1500 g A.S./ha): 5%
- Herbicidal action in % against Galium aparine (Galium aparine [4]; dose 3000 g A.S./ha): 5%

Structure (SMILES): Cc1cccc(S(=O)(=O)NC(=O)Nc2nc(OCC(F)(F)F)nc(N(C)C)n2)c1C(=O)O [(B1.3)]
- Damage to transgenic sugar beet (transgenic sugar beet [5]; dose 8 g A.S./ha): 0
- Damage to transgenic sugar beet (transgenic sugar beet [5]; dose 17 g A.S./ha): 0
- Herbicidal action in % against Setaria viridis (Setaria viridis [6]; dose 8 g A.S./ha): 0%
- Herbicidal action in % against Setaria viridis (Setaria viridis [6]; dose 17 g A.S./ha): 20%

Structure (SMILES): O=C(O)c1nc(Cl)ccc1Cl [(B2.4), 3,6-dichloropyridine-2-carboxylic acid]
- Damage to transgenic sugar beet (transgenic sugar beet [2]; dose 50 g A.S./ha): 0
- Damage to transgenic sugar beet (transgenic sugar beet [2]; dose 100 g A.S./ha): 0
- Damage to transgenic sugar beet (transgenic sugar beet [2]; dose 200 g A.S./ha): 0
- Herbicidal action in % against Galium aparine (Galium aparine [4]; dose 50 g A.S./ha): 5%
- Herbicidal action in % against Galium aparine (Galium aparine [4]; dose 100 g A.S./ha): 35%
- Herbicidal action in % against Galium aparine (Galium aparine [4]; dose 200 g A.S./ha): 45%

Structure (SMILES): CC(C)N.O=C(O)CNCP(=O)(O)O [(A2.2), monoisopropylammonlum salt of glyphosate]
- Herbicidal action in % against Galium aparine (Galium aparine [7]; dose 125 g A.S./ha): 10%
- Herbicidal action in % against Galium aparine (Galium aparine [7]; dose 250 g A.S./ha): 40%
- Herbicidal action in % against Galium aparine (Galium aparine [7]; dose 500 g A.S./ha): 60%
- Herbicidal action in % against Galium aparine (Galium aparine [7]; dose 1000 g A.S./ha): 85%

Structure (SMILES): COC(=O)Nc1cccc(NC(=O)Oc2cccc(C)c2)c1 [(B2.2), 3-methylphenyl N-[3-(methoxycarbonylamino)phenyl]carbamate]
- Herbicidal action in % against Galium aparine (Galium aparine [7]; dose 500 g A.S./ha): 20%
- Herbicidal action in % against Galium aparine (Galium aparine [7]; dose 1000 g A.S./ha): 30%
- Herbicidal action in % against Galium aparine (Galium aparine [7]; dose 2000 g A.S./ha): 30%
- Damage to transgenic sugar beet (transgenic sugar beet [2]; dose 500 g A.S./ha): 0
- Damage to transgenic sugar beet (transgenic sugar beet [2]; dose 1000 g A.S./ha): 0
- Damage to transgenic sugar beet (transgenic sugar beet [2]; dose 2000 g A.S./ha): 0
- Herbicidal action in % against Galium aparine (Galium aparine [4]; dose 500 g A.S./ha): 20%
- Herbicidal action in % against Galium aparine (Galium aparine [4]; dose 1000 g A.S./ha): 30%
- Herbicidal action in % against Galium aparine (Galium aparine [4]; dose 2000 g A.S./ha): 30%

Structure (SMILES): CCOC(=O)C(C)Oc1ccc(Oc2nc3ccc(Cl)cc3o2)cc1 (racemic) [(B3.2), fenoxaprop-ethyl (rac.)]
- Herbicidal action in % against Avena fatua (Avena fatua; dose 15 g A.S./ha): 20%
- Herbicidal action in % against Avena fatua (Avena fatua; dose 30 g A.S./ha): 60%
- Herbicidal action in % against Avena fatua (Avena fatua; dose 60 g A.S./ha): 85%
- Damage to transgenic sugar beet (transgenic sugar beet [8]; dose 15 g A.S./ha): 0
- Damage to transgenic sugar beet (transgenic sugar beet [8]; dose 30 g A.S./ha): 0
- Damage to transgenic sugar beet (transgenic sugar beet [8]; dose 60 g A.S./ha): 0

Structure (SMILES): CCCC(=NOCC)C1=C(O)CC(C2CCCSC2)CC1=O (stereo not shown) [(B4.2), 2-(1-ethoxyiminobutyl)-3-hydroxy-5-thian-3-ylcyclohex-2-enone]
- Herbicidal action in % against Echinochloa crus-galli (Echinochloa crus-galli; dose 62.5 g A.S./ha): 45%
- Herbicidal action in % against Echinochloa crus-galli (Echinochloa crus-galli; dose 125 g A.S./ha): 70%
- Herbicidal action in % against Echinochloa crus-galli (Echinochloa crus-galli; dose 250 g A.S./ha): 93%
- Damage to transgenic sugar beet (transgenic sugar beet [1]; dose 62.5 g A.S./ha): 0
- Damage to transgenic sugar beet (transgenic sugar beet [1]; dose 125 g A.S./ha): 0
- Damage to transgenic sugar beet (transgenic sugar beet [1]; dose 250 g A.S./ha): 0
